In patent US20250101023A1, “HETEROARYL DERIVATIVE AND USES THEREOF” (IUCF-HYU (INDUSTRY-UNIVERSITY COOPERATION FOUNDATION …, priority 2022, published 2025):

Legend:
FRK/PTK5 = FRK/PTK5 (Homo sapiens (Human), UniProt P42685); test: Kinome-wide profiling; format: biochemical; settings: read-out: % Residual Activity (mean)
FLT1/VEGFR1 = FLT1/VEGFR1 (Homo sapiens (Human), UniProt P17948); test: Kinome-wide profiling; format: biochemical; settings: read-out: % Residual Activity (mean)
PHKg1 = PHKg1 (Homo sapiens (Human), UniProt Q16816); test: Kinome-wide profiling; format: biochemical; settings: read-out: % Residual Activity (mean)
BLK = BLK (Homo sapiens (Human), UniProt P51451); test: Kinome-wide profiling; format: biochemical; settings: read-out: % Residual Activity (mean)
DYRK1B = DYRK1B (Homo sapiens (Human), UniProt Q9Y463); test: Kinome-wide profiling; format: biochemical; settings: read-out: % Residual Activity (mean)
ABL1 = ABL1 (Homo sapiens (Human), UniProt P00519); test: Kinome-wide profiling; format: biochemical; settings: read-out: % Residual Activity (mean)
PKCeta = PKCeta (Homo sapiens (Human), UniProt P24723); test: Kinome-wide profiling; format: biochemical; settings: read-out: % Residual Activity (mean)
NEK7 = NEK7 (Homo sapiens (Human), UniProt Q8TDX7); test: Kinome-wide profiling; format: biochemical; settings: read-out: % Residual Activity (mean)
RON/MST1R = RON/MST1R (Homo sapiens (Human), UniProt Q04912); test: Kinome-wide profiling; format: biochemical; settings: read-out: % Residual Activity (mean)
JAK2 = JAK2 (Homo sapiens (Human), UniProt O60674); test: Kinome-wide profiling; format: biochemical; settings: read-out: % Residual Activity (mean)
PKG2/PRKG2 = PKG2/PRKG2 (Homo sapiens (Human), UniProt Q13237); test: Kinome-wide profiling; format: biochemical; settings: read-out: % Residual Activity (mean)
CDK9/cyclin T2 = CDK9/cyclin T2 (Homo sapiens (Human), UniProt P50750); test: Kinome-wide profiling; format: biochemical; settings: read-out: % Residual Activity (mean)
CDK7/cyclin H = CDK7/cyclin H (Homo sapiens (Human), UniProt P50613); test: Kinome-wide profiling; format: biochemical; settings: read-out: % Residual Activity (mean)
MAPKAPK5/PRAK = MAPKAPK5/PRAK (Homo sapiens (Human), UniProt Q8IW41); test: Kinome-wide profiling; format: biochemical; settings: read-out: % Residual Activity (mean)
TYRO3/SKY = TYRO3/SKY (Homo sapiens (Human), UniProt Q06418); test: Kinome-wide profiling; format: biochemical; settings: read-out: % Residual Activity (mean)
Sequence of TYRO3/SKY (Q06418 41-890): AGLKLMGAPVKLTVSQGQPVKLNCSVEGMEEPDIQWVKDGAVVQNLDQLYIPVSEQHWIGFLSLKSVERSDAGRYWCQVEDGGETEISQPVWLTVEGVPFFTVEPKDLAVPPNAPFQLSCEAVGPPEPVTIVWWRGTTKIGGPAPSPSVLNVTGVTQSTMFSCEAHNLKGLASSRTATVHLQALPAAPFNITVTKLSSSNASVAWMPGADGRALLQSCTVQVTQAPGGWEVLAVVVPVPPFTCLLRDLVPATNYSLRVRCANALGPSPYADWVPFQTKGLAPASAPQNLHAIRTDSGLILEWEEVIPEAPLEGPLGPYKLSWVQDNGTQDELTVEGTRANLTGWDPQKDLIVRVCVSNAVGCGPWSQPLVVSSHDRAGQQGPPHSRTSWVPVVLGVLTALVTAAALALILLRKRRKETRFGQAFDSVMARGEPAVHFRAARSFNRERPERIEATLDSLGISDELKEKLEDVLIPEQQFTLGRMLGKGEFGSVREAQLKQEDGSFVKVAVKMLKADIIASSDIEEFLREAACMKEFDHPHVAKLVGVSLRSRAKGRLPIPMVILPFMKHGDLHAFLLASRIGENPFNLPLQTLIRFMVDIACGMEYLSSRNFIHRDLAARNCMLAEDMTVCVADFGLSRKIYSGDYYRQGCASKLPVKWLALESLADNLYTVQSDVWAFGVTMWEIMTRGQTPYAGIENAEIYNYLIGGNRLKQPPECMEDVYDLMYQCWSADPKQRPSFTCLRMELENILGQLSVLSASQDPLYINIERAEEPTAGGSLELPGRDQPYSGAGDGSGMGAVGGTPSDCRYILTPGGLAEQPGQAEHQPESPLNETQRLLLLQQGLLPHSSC

PIM3 = PIM3 (Homo sapiens (Human), UniProt Q86V86); test: Kinome-wide profiling; format: biochemical; settings: read-out: % Residual Activity (mean)
MYO3b = MYO3b (Homo sapiens (Human), UniProt Q8WXR4); test: Kinome-wide profiling; format: biochemical; settings: read-out: % Residual Activity (mean)
Sequence of MYO3b (Q8WXR4 whole entry): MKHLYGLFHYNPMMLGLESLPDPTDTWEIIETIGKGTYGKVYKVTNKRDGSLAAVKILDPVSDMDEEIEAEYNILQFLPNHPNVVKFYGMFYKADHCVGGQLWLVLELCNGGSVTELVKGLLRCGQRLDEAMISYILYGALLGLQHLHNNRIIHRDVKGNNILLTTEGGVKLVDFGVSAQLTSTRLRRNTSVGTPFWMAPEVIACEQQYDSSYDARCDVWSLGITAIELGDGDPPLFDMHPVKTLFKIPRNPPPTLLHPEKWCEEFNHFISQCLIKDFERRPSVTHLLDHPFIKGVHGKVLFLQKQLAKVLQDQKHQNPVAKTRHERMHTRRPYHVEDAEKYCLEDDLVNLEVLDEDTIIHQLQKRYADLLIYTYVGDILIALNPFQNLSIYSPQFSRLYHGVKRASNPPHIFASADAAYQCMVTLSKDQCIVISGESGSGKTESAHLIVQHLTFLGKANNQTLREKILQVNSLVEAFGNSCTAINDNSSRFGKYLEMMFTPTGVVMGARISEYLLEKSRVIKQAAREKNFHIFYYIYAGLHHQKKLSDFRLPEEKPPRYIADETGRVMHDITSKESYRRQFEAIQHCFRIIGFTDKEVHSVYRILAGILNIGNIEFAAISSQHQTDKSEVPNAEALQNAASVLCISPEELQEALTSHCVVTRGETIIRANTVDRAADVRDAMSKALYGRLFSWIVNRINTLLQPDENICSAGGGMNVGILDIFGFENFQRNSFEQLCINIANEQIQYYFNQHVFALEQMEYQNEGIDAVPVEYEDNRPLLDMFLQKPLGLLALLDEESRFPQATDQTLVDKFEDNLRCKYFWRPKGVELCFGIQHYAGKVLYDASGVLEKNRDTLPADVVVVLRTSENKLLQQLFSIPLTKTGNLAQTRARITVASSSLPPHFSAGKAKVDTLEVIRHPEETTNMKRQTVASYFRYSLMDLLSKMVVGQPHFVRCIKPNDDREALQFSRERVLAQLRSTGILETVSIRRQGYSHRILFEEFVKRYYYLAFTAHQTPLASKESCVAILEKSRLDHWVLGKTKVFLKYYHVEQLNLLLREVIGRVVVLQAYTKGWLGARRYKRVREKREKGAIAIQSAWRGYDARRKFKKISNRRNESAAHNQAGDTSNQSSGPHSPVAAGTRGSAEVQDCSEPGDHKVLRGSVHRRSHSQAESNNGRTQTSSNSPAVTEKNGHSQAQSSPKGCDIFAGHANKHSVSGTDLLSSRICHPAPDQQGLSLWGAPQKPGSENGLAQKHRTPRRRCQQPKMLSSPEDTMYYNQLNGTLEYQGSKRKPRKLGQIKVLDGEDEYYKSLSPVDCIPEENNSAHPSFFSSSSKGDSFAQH

IRS1 and WNT1 = test: Western blot, CDK12 downstream gene expression; format: cell-based; settings: SK-Br3 and HCC1954 cell lines, 40 and 200 nM, 24 hours
BRSK1 = BRSK1 (Homo sapiens (Human), UniProt Q8TDC3); test: Kinome-wide profiling; format: biochemical; settings: read-out: % Residual Activity (mean)
FGFR3 = FGFR3 (Homo sapiens (Human), UniProt P22607); test: Kinome-wide profiling; format: biochemical; settings: read-out: % Residual Activity (mean)
FGFR4 = FGFR4 (Homo sapiens (Human), UniProt P22455); test: Kinome-wide profiling; format: biochemical; settings: read-out: % Residual Activity (mean)
Sequence of FGFR4 (P22455 22-802): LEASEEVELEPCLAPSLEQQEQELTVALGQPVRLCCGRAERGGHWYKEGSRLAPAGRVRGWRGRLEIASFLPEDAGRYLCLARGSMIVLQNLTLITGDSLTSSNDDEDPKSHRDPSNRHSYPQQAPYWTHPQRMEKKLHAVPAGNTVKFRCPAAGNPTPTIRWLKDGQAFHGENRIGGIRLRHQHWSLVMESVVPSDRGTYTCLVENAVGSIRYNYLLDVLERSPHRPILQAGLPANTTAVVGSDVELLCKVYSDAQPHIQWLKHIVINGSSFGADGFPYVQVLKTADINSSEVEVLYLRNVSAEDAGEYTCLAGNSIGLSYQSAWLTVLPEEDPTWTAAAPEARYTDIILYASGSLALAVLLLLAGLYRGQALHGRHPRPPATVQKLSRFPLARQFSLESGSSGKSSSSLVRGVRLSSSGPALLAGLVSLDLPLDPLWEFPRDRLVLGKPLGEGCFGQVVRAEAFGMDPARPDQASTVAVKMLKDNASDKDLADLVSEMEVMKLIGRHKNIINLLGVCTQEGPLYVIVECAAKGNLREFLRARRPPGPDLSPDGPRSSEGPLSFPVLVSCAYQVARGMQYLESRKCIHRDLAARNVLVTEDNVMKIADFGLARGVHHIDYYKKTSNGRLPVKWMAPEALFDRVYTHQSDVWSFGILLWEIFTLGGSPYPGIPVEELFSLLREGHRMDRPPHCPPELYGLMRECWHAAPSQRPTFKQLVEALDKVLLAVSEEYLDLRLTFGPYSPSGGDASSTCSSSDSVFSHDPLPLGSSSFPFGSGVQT

CAMK2d = CAMK2d (Homo sapiens (Human), UniProt Q13557); test: Kinome-wide profiling; format: biochemical; settings: read-out: % Residual Activity (mean)
DYRK2 = DYRK2 (Homo sapiens (Human), UniProt Q92630); test: Kinome-wide profiling; format: biochemical; settings: read-out: % Residual Activity (mean)
IRAK1 = IRAK1 (Homo sapiens (Human), UniProt P51617); test: Kinome-wide profiling; format: biochemical; settings: read-out: % Residual Activity (mean)
MARK3 = MARK3 (Homo sapiens (Human), UniProt P27448); test: Kinome-wide profiling; format: biochemical; settings: read-out: % Residual Activity (mean)
Sequence of MARK3 (P27448 whole entry): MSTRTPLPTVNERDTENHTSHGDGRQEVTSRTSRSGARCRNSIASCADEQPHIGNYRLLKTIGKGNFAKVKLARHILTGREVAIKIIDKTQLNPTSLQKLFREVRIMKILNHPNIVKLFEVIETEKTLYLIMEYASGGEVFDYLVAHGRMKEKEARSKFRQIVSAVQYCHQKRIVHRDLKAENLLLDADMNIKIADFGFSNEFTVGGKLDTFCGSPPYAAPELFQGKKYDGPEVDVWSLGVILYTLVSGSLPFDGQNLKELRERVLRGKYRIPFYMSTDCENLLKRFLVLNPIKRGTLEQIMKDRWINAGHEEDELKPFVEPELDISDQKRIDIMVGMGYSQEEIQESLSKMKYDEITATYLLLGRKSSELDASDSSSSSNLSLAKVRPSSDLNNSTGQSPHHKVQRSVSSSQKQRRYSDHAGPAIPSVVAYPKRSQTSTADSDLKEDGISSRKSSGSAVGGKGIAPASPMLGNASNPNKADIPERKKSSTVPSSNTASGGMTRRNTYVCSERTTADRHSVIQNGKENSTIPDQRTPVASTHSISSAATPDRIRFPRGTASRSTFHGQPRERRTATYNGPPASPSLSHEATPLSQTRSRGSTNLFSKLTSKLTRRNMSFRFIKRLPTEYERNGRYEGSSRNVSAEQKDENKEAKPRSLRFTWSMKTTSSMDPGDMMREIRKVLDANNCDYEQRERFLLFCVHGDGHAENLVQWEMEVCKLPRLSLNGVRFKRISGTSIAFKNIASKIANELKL

PKCepsilon = PKCepsilon (Homo sapiens (Human), UniProt Q02156); test: Kinome-wide profiling; format: biochemical; settings: read-out: % Residual Activity (mean)
RIPK2 = RIPK2 (Homo sapiens (Human), UniProt O43353); test: Kinome-wide profiling; format: biochemical; settings: read-out: % Residual Activity (mean)
CSK = CSK (Homo sapiens (Human), UniProt P41240); test: Kinome-wide profiling; format: biochemical; settings: read-out: % Residual Activity (mean)
CK1g3 = CK1g3 (Homo sapiens (Human), UniProt Q9Y6M4); test: Kinome-wide profiling; format: biochemical; settings: read-out: % Residual Activity (mean)
TGFBR2 = TGFBR2 (Homo sapiens (Human), UniProt P37173); test: Kinome-wide profiling; format: biochemical; settings: read-out: % Residual Activity (mean)
Sequence of TGFBR2 (P37173 23-567): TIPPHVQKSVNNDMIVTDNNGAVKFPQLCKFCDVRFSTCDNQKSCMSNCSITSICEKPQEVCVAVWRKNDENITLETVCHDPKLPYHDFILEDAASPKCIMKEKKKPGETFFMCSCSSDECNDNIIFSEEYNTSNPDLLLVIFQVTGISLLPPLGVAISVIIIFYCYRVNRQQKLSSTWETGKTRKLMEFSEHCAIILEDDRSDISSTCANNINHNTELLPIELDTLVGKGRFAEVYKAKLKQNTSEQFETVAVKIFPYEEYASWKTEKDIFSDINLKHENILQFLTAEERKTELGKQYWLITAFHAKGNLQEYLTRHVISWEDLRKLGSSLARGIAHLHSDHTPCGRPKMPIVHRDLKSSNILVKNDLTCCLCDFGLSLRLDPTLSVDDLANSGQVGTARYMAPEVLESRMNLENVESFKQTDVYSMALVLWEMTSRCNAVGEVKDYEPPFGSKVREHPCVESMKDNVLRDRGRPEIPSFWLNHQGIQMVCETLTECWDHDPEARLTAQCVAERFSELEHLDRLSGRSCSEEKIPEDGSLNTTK

SBK1 = SBK1 (Homo sapiens (Human), UniProt Q52WX2); test: Kinome-wide profiling; format: biochemical; settings: read-out: % Residual Activity (mean)
Aurora B = Aurora B (Homo sapiens (Human), UniProt Q96GD4); test: Kinome-wide profiling; format: biochemical; settings: read-out: % Residual Activity (mean)
DCAMKL2 = DCAMKL2 (Homo sapiens (Human), UniProt Q8N568); test: Kinome-wide profiling; format: biochemical; settings: read-out: % Residual Activity (mean)
Sequence of DCAMKL2 (Q8N568 whole entry): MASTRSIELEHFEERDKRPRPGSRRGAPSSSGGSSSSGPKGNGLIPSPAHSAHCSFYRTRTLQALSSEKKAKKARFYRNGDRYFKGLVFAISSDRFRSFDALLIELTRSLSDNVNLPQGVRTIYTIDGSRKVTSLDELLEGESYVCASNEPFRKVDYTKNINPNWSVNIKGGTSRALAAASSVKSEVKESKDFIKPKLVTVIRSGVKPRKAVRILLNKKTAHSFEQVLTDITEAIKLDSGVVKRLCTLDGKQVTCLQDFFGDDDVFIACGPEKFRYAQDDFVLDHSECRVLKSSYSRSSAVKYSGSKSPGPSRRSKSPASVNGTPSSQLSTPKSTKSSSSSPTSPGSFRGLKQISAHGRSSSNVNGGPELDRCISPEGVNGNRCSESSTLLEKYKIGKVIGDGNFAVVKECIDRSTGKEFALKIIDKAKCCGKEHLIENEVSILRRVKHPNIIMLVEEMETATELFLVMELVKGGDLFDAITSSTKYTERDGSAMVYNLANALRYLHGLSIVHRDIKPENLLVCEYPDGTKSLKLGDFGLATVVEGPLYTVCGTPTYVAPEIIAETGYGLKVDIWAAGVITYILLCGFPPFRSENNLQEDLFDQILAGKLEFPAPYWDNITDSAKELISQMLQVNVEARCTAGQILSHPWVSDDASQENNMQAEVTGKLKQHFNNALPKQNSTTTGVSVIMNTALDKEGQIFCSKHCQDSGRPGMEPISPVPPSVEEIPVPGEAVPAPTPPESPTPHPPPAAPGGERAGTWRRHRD

NLK = NLK (Homo sapiens (Human), UniProt Q9UBE8); test: Kinome-wide profiling; format: biochemical; settings: read-out: % Residual Activity (mean)

CCn1cnc2c(NCc3ccc(-c4ccccn4)nc3)nc(-c3ccc(N)nc3)nc21 [Example 53, N-([2,2′-bipyridin]-5-ylmethyl)-2-(6-aminopyridin-3-yl)-9-ethyl-9H-purin-6-amine]
remaining activity at 10 µM (FRK/PTK5): 43.5%
remaining activity at 10 µM (FLT1/VEGFR1): 36.3%
remaining activity at 10 µM (PHKg1): 16.5%
remaining activity at 10 µM (BLK): 66.8%
remaining activity at 10 µM (DYRK1B): 3.19%
remaining activity at 10 µM (ABL1): 61.2%
remaining activity at 10 µM (PKCeta): 87.9%
remaining activity at 10 µM (NEK7): 93.2%
remaining activity at 10 µM (RON/MST1R): 86.8%
remaining activity at 10 µM (JAK2): 87%
remaining activity at 10 µM (PKG2/PRKG2): 99.5%
remaining activity at 10 µM (CDK9/cyclin T2): 1.95%
remaining activity at 10 µM (CDK7/cyclin H): 3.81%
remaining activity at 10 µM (MAPKAPK5/PRAK): 103%
remaining activity at 10 µM (TYRO3/SKY): 22.4%
remaining activity at 10 µM (PIM3): 86.7%
remaining activity at 10 µM (MYO3b): 68.1%
expression of IRS1 and WNT1 (IRS1 and WNT1): inhibited the expression of IRS1 and WNT1
expression of IRS1 and WNT1 (IRS1 and WNT1; listed as Compound 53): strongly suppressed
remaining activity at 10 µM (BRSK1): 92.8%
remaining activity at 10 µM (FGFR3): 30.6%
remaining activity at 10 µM (FGFR4): 87.4%
remaining activity at 10 µM (CAMK2d): 61.7%
remaining activity at 10 µM (DYRK2): 22.3%
remaining activity at 10 µM (IRAK1): 79%
remaining activity at 10 µM (MARK3): 83.1%
remaining activity at 10 µM (PKCepsilon): 94.1%
remaining activity at 10 µM (RIPK2): 66.1%
remaining activity at 10 µM (CSK): 54.8%
remaining activity at 10 µM (CK1g3): 24.4%
remaining activity at 10 µM (TGFBR2): 94.5%
remaining activity at 10 µM (SBK1): 94.5%
remaining activity at 10 µM (Aurora B): 73%
remaining activity at 10 µM (DCAMKL2): 55%
remaining activity at 10 µM (NLK): 24.8%
